Structures can show the parent of a compound that is named as a salt. Where two headings read alike, the source gives them in different places.
Legend:
[1] = biological target: Tyrosinase; settings: L-DOPA as substrate, read-out: Tyrosinase Inhibitory Activity IC50, cited from earlier work
[2] = tested on: B16 melanoma cells; design: method as in PMID 20863702; settings: read-out: Anti-Melanogenesis Activity IC50; cited from earlier work
[3] = DPPH radical scavenging assay; settings: 0.1 mM DPPH, 30 min in the dark, 517 nm; mean ± SD of triplicate
Description: Radical scavenging activity of the thiosemicarbazone derivatives was estimated according to the previously reported method with slight modification using the stable DPPH radical. A solution of 0.1 mM DPPH radical was added to various concentrations of the compounds. The absorbance of the DPPH radical without an antioxidant, i.e., blank, was also measured. The mixture was shaken vigorously and kept at room temperature for 30 min in the dark. The absorbance of the reaction mixture was measured at 517 nm spectrophotometrically. All the determinations were performed in triplicate.

[4] = biological target: mushroom tyrosinase; assay: Mushroom tyrosinase inhibition assay (L-DOPA, dopachrome formation at 492 nm); type: biochemical; settings: L-DOPA substrate, pH 6.8, 37 °C; mean ± SD of triplicate experiments; read-out: IC50 against mushroom tyrosinase activity
Description: Mushroom Tyr inhibition was assessed as described previously with minor modifications. […] L-DOPA was then added and the dopachrome formation was monitored at 492 nm. The measurements were taken using a FLUOstar OPTIMA (BMG Labtech, Offenburg, Germany). The IC50 value was determined by analysing dose–response curves.

[5] = ABTS radical scavenging assay; settings: 734 nm after 1 min of incubation; mean ± SD of triplicate
Description: Samples of each compound (10 µL) were added to 990 µL of ABTS, and the reduction in the blue-green radical ABTS^+• by hydrogen-donating antioxidants was evaluated by measuring the absorbance at 734 nm after 1 min of incubation. All the measurements were carried out at least three times.

Row | Structure (SMILES) | melting point [°C] | IC50 [4] [µM] | DPPH (% I ± SD), percentage of inhibition of free radicals [3] [%] | ABTS (% I ± SD), percentage of inhibition of free radicals [5] [%] | further results
1 | NC(=S)N/N=C/c1ccc(Cl)cc1 [Compound 1] |  |  |  |  | IC50 ([1]; ref 17): 0.84 µM; IC50 ([1]; ref 18): 1.9 µM
2 | COc1ccc(/C=N/NC(N)=S)cc1 [Compound 2] |  |  |  |  | IC50 ([1]; ref 17): 0.44 µM; IC50 ([1]; ref 20): 1.48 µM
3 | NC(=S)N/N=C/c1ccc([N+](=O)[O-])cc1 [Compound 3] |  |  |  |  | IC50 ([1]; ref 19): 1.9 µM
4 | NC(=S)N/N=C/c1ccccc1 [Compound 4] |  |  |  |  | IC50 [2]: > 10 µM
5 | NC(=S)N/N=C/c1cccc2ccccc12 [Compound 5] |  |  |  |  | IC50 [2]: 1.1 µM
6 | NC(=S)N/N=C/c1ccncc1 [Compound 6] |  |  |  |  | IC50 [2]: > 30 µM

Continued, in another order:

Row | melting point [°C] | IC50 [4] [µM] | Structure (SMILES) | DPPH (% I ± SD), percentage of inhibition of free radicals [3] [%] | ABTS (% I ± SD), percentage of inhibition of free radicals [5] [%] | further results
7 | 159 to 160 |  | NC(=S)N/N=C/c1ccc(OS(=O)(=O)c2ccccc2)cc1 (as salt: benzenesulfonate) [TCBS1, (E)-4-((2-carbamothioylhydrazineylidene)methyl)phenyl benzenesulfonate] |  |  | 
8 | 226 to 228 |  | NC(=S)N/N=C/c1ccc(OS(=O)(=O)c2ccc([N+](=O)[O-])cc2)cc1 (as salt: benzenesulfonate) [TCBS2, (E)-4-((2-carbamothioylhydrazineylidene)methyl)phenyl 4-nitrolbenzenesulfonate] |  |  | 
9 | 194 to 196 |  | NC(=S)N/N=C/c1ccc(OS(=O)(=O)c2ccc(Cl)cc2)cc1 (as salt: benzenesulfonate) [TCBS5, (E)-4-((2-carbamothioylhydrazineylidene)methyl)phenyl 4-chlorobenzenesulfonate] |  |  | 
10 |  | 0.44 ± 0.03 | NC(=S)N/N=C/c1ccc(OS(=O)(=O)c2ccccc2)cc1 [TCBS1, (E)-4-((2-carbamothioylhydrazineylidene)methyl)phenyl benzenesulfonate] | 26 ± 2 | 39 ± 1 | 
11 |  | 0.66 ± 0.05 | NC(=S)N/N=C/c1ccc(OS(=O)(=O)c2ccc([N+](=O)[O-])cc2)cc1 [TCBS2, (E)-4-((2-carbamothioylhydrazineylidene)methyl)phenyl 4-nitrolbenzenesulfonate] | 16 ± 2 | 25 ± 4 | 
12 | 154 to 156 | 0.44 ± 0.01 | COc1ccc(S(=O)(=O)Oc2ccc(/C=N/NC(N)=S)cc2)cc1 [TCBS3, (E)-4-((2-carbamothioylhydrazineylidene)methyl)phenyl 4-methoxylbenzenesulfonate] | 33 ± 4 | 35 ± 1 | 
13 | 195 to 197 | 0.44 ± 0.01 | Cc1ccc(S(=O)(=O)Oc2ccc(/C=N/NC(N)=S)cc2)cc1 [TCBS4, (E)-4-((2-carbamothioylhydrazineylidene)methyl)phenyl 4-methylbenzenesulfonate] | 20 ± 1 | 30 ± 2 | 
14 |  | 0.71 ± 0.02 | NC(=S)N/N=C/c1ccc(OS(=O)(=O)c2ccc(Cl)cc2)cc1 [TCBS5, (E)-4-((2-carbamothioylhydrazineylidene)methyl)phenyl 4-chlorobenzenesulfonate] | 32 ± 5 | 22 ± 2 | 
15 | 224 to 226 | 1.6 ± 0.02 | CS(=O)(=O)Oc1ccc(/C=N/NC(N)=S)cc1 [TCMS1, (E)-4-((2-carbamothioylhydrazineylidene)methyl)phenyl methanesulfonate] | 20 ± 2 | 42 ± 4 | 
